Test results published in patent publication US9518038B2, “Condensation product of theanine derivative and carboxylic acid coumarin derivative, its intermediate, preparation method and use thereof” (SHANDONG YINGDONG YINGHAO BIOTECHNOLOGY, INC., priority 2012, dated 2016).

Key:
[1] = system: human prostate cancer cells PC-3; assay: MTT growth inhibition, PC-3 cells; assay type: cell-based; conditions: 72 h after treatment, read-out: Drug concentration (IC50) at which 50% cancer cells survived
Excerpt: (§1) Cell lines and cell culture: human lung cancer cells A549 and H460, human breast cancer cells MCF-7 and MDA-MB-231, human gastric cancer cells BGC-823, human prostate cancer cells PC-3, human chronic leukemia cells K562, human lymphoma cells U937, human liver cancer cells SMMC7721 and HepG2, human colon cancer cells HT29, human pancreatic cancer cells PANC-1 and BxPC3, human cervical cancer Hela cell lines, human brain tumor cells Daoy, human neuroma cells D54 and human oral epidermoid cancer cells KBV200 line with strong drug resistance, mouse melanoma cells B16, and highly metastatic Lewis lung cancer cell lines were purchased from American Type Culture Collection of the U.S. These cells were cultured with DMEM and RPMI-1640 culture solutions separately.
(§2) The procedure was as follows:
(§3) (1) 0.25% trypsin was used to digest cancer cells in a logarithmic growth phase to prepare a single-cell suspension, the concentration of cells was adjusted to 5×10^4/mL, and the adjusted suspension was inoculated into a 96-well culture plate with 100 μl per well;
(§4) (2) The culture plate was transferred into a 37° C. incubator with a saturated humidity and 5% of CO2 and cultured for 24 h; the compounds and the intermediates thereof obtained in embodiments 1-7 and the compound as represented by formula (IIIa) or the positive control anti-cancer drug with the concentration of 1-1000 μM/L were added to enable the final concentration to be 0.1-1500 μM/L. Control wells (only added with 200 μl of cell suspension) and drug-free blank control wells (containing the solvent of 0.01% DMSO) were set, each group included 8 wells, and the plate was placed into the 37° C. incubator with saturated humidity and 5% of CO2 for culturing;
(§5) (3) The 96-well plate was taken out at 48 h and 72 h after dosing, the original culture medium was carefully removed by suction, 100 μl of serum-free DMEM culture medium and 10 μl of MTT (5 mg/mL) solution were added in each well. The plate was continuously cultured for another 4 h and then the culture was terminated;
(§6) (4) The supernatant in the wells was carefully removed by suction, each well was added with 150 μl of DMSO and shaked at room temperature for 10-15 min to fully dissolve crystals.
(§7) (5) Colorimetric analysis: the wavelength was selected as 570 nm, the light absorbance (A value) of each well was determined on the microplate reader and the results were recorded; the experiment was repeated for three times;
(§8) (6) the experimental results were calculated according to the following formula: relative survival rate=(A value of each experimental group/A value of cell control group)×100%
(§9) Calculation of median-effect concentration (IC50, namely the drug concentration at which the inhibition rate is 50%, also known as half inhibitory concentration):
(§10) IC50 of the detected component was calculated by using a regression equation.

[2] = system: highly metastatic Lewis lung cancer cell lines; assay: MTT growth inhibition, LLC cells; assay type: cell-based, mouse; conditions: Mus musculus, Lewis lung carcinoma, 72 h after treatment, read-out: Drug concentration (IC50) at which 50% cancer cells survived
Excerpt: as §1, §2, §3, §4, §5, §6, §7, §8, §9, §10

[3] = system: human breast cancer cells MDA-MB-231; assay: MTT growth inhibition, MDA-MB-231 cells; assay type: cell-based; conditions: 72 h after treatment, read-out: Drug concentration (IC50) at which 50% cancer cells survived
[4] = system: human breast cancer cells MDA-MB231 xenograft; assay: In-vivo growth of MDA-MB231 xenografts in nude mice; parameters: species or system BALB/c nude mice; conditions: Mus musculus, MDA-MB-231, ip, MB-231 xenograft, vs DMSO solvent control, read-out: Curative effect (inhibition rate %) of tumor weight; for inhibition in vivo at 60 mg/kg: 60 mg/kg intraperitoneal once a day; for inhibition in vivo at 90 mg/kg: 90 mg/kg intraperitoneal once a day
Experimental: RPMI1640 and DMEM culture solutions: Hyclone Company; inactivated fetal bovine serum: Hyclone Company, preserved at −20° C.; trypsin: Amersco Company; and 0.4% trypan blue: Sigma Company;
(3) Observation of growth of tumors in nude mice: the activities (including food intake, traits of urine and stool, mental state and the like) of the nude mice and the tumor growth time and growth situation of the transplanted tumors were observed every day, the body weight and the size of the tumors were measured once every 2-3 days. The long diameter a and the short diameter b (mm) of each tumor were measured by a vernier caliper to calculate the volume, wherein the volume V=π1/2·ab^2 (mm^3);
(4) sacrifice of animals: the mice were anesthetized and photoed after treatment experiments; the nude mice were sacrificed by breaking neck, the tumor tissues were stripped under sterile conditions and the weight of the tumors was weighed; and the effects of the drugs on pathology and toxicity of the various organs and tissues were detected.

[5] = system: human lymphoma cells U937; assay: MTT growth inhibition, U937 cells; assay type: cell-based; conditions: Homo sapiens, U-937, 72 h after treatment, read-out: Drug concentration (IC50) at which 50% cancer cells survived
Experimental: as §2, §5, §6, §7, §8, §10

[6] = system: human cervical cancer Hela cell lines; assay: MTT growth inhibition, Hela cells; assay type: cell-based; conditions: Homo sapiens, 72 h after treatment, read-out: Drug concentration (IC50) at which 50% cancer cells survived
Excerpt: as §1, §2, §3, §4, §5, §6, §7, §8, §9, §10

[7] = system: human gastric cancer cells BGC-823; assay: MTT growth inhibition, BGC-823 cells; assay type: cell-based; conditions: 72 h after treatment, read-out: Drug concentration (IC50) at which 50% cancer cells survived
Excerpt: as §1, §2, §3, §4, §5, §6, §7, §8, §9, §10

[8] = system: human breast cancer cells MCF-7; assay: MTT growth inhibition, MCF-7 cells; assay type: cell-based; conditions: MCF7, 72 h after treatment, read-out: Drug concentration (IC50) at which 50% cancer cells survived
Excerpt: as §1, §2, §3, §4, §5, §6, §7, §8, §9, §10

HDAC4 = assay: Western Blotting, HDAC4 level; assay type: cell-based; conditions: human liver cancer cells, Lewis lung cancer cells and other cancer cell lines and tumor tissues, read-out: Effective concentration (IC50) for inhibition of HDAC4
Excerpt: (§11) Antibodies: primary antibodies of VEGFR, EGFR, c-Met, K-Ras, H-Ras, Akt, NF-κB, Cyclin D1, ER-alpha, Dvl-1, Dvl-2, Dvl-3, MMP-9, MMP2, β-catenin, Bcl-2, Bax, p53, p21, E-cadherin and Caspase3 protein, purchased from American Cell Signaling Technology Company and Santa Cruz Technology Company; and H3 acetylation, H4 acetylation and HDAC (HDAC3, HDAC4 and the like) Antibody Sample Kits, purchased from Cell Signaling Technology Company of the U.S.
(§12) (3) polyacrylamide gel electrophoresis (SDS-PAGE): an equal amount of protein lysate sample was used to separate protein, film transfer, and blocking, treated with appropriate primary antibodies and secondary antibodies in sequence, and the film was washed, then the color was developed with ECL kit, and a blot protein band was detected by exposure of an X-ray film; and a Gel-Pro Analyzer was used for quantitative analysis of gray degree, optical density value of the control group and the drug treatment group in various concentration were respectively compared with that of internal reference, the obtained ratios were respectively compared with the control group, and the protein expression level was semi-quantified.

VEGFR1 = assay: Western Blotting, VEGFR1 level; assay type: cell-based; conditions: human liver cancer cells, Lewis lung cancer cells and other cancer cell lines and tumor tissues, read-out: Effective concentration (IC50) for inhibition of VEGFR1
Excerpt: as §11, §12

Dvl-1 = assay: Western Blotting, Dvl-1 level; assay type: cell-based; conditions: human liver cancer cells, Lewis lung cancer cells and other cancer cell lines and tumor tissues, read-out: Effective concentration (IC50) for inhibition of Dvl-1
Excerpt: as §11, §12

VEGFR2 = assay: Western Blotting, VEGFR2 level; assay type: cell-based; conditions: human liver cancer cells, Lewis lung cancer cells and other cancer cell lines and tumor tissues, read-out: Effective concentration (IC50) for inhibition of VEGFR2
Excerpt: as §11, §12

| SMILES | IC50 [1] [µM] | IC50 [2] [µM] | IC50 [3] [µM] | inhibition in vivo at 60 mg/kg [4] [%] | inhibition in vivo at 90 mg/kg [4] [%] | IC50 [5] [µM] | IC50 [6] [µM] | IC50 [7] [µM] | IC50 [8] [µM] | IC50 (HDAC4) [µM] | IC50 (VEGFR1) [µM] | IC50 (Dvl-1) [µM] | IC50 (VEGFR2) [µM] |
| --- | --- | --- | --- | --- | --- | --- | --- | --- | --- | --- | --- | --- | --- |
| CCNC(=O)CC[C@H](N)C(=O)OC [Compound IIa, theanine methyl ester] | 350 | 100 | 480 | 31.1 | 36.1 | 350 | 330 | 310 | 450 | – | – | – | – |
| CCNC(=O)CCC(NC(=O)c1cc2ccccc2oc1=O)C(=O)OCC (stereo not drawn) [Compound Ib, ethyl 5-ethylamino-5-oxo-2-(2-oxo-2H-benzopyran-3-carboxamido)pentanoate] | 125 | 115 | 109 | 59.1 | 69.1 | 90 | 53 | 127 | 103 | < 60 | < 120 | < 300 | < 120 |
| CCNC(=O)CCC(NC(=O)c1cc2cc(F)ccc2oc1=O)C(=O)OCC (stereo in doubt) [Compound Ie, (R)-2-(6-F-2-oxo-2H-benzopyran-3-carboxamido)-5-ethylamino-5-oxo-pentanoic acid ethyl ester] | 127 | 110 | 90 | 50.9 | 60.9 | 126 | 71 | 143 | 115 | < 50 | < 110 | < 150 | < 90 |
| CCNC(=O)CC[C@@H](NC(=O)c1cc2cc(Br)cc(Br)c2oc1=O)C(=O)OCC [Compound Ih, (R)-2-(6,8-dibromo-2-oxo-2H-benzopyran-3-carboxamido)-5-ethylamino-5-oxo-pentanoic ethyl ester] | 87 | 53 | 98 | 55.1 | 75.1 | 57 | 58 | 85 | 91 | < 50 | < 100 | < 250 | < 100 |
| CCNC(=O)CC[C@@H](NC(=O)c1cc2cc(Cl)cc(Cl)c2oc1=O)C(=O)OCC [Compound Ig, (R)-2-(6,8-dichloro-2-oxo-2H-benzopyran-3-carboxamido)-5-ethylamino-5-oxo-pentanoic ethyl ester] | 45 | 36 | 92 | 59.1 | 72.1 | 38 | 66 | 60 | 75 | < 50 | < 100 | < 125 | < 100 |
| CCNC(=O)CCC(NC(=O)c1cc2cc([N+](=O)[O-])ccc2oc1=O)C(=O)OCC (stereo in doubt) [Compound If, (R)-2-(6-nitro-2-oxo-2H-benzopyran-3-carboxamido)-5-ethylamino-5-oxo-pentanoic acid ethyl ester] | 171 | 100 | 110 | 52.6 | 62.3 | 121 | 71 | 115 | 112 | < 45 | < 90 | < 200 | < 90 |
| CCNC(=O)CCC(NC(=O)c1cc2ccccc2oc1=O)C(=O)OC (stereo not drawn) [Compound Ia, methyl 5-ethylamino-5-oxo-2-(2-oxo-2H-benzopyran-3-carboxamido)pentanoate] | 146 | 185 | 240 | 50.1 | 60.1 | 56 ± 10 | 64 ± 20 | 123 | 220 | < 65 | < 125 | < 135 | < 125 |
| CCNC(=O)CC[C@H](N)C(=O)OCC [Compound IIb, theanine ethyl ester] | 400 | 300 | 400 | 44.5 | 47.8 | 400 | 500 | 600 | 300 | – | – | – | – |
